From patent US11712430B2, “Formulated cannabis oil powder by nanoemulsification, methods of producing and uses thereof” (KARNAK TECHNOLOGIES, LLC, priority 2018, dated 2023) come the findings set out here.

A short description of the data set: Complete dissolution of agents to obtain the aqueous phase. Type of data set: physicochemical. The note with it: as in Example 1, Stage 1. As to the method:
0.25 gr ammonium glycyrrhizinate, (Sigma, 50531-50G, cas: 53956-04-0), 2 gr Maltodextrin, (Sigma, 419699-500G, cas: 9050-36-6), 2 gr sucrose, (Sigma, 59378-500G, cas: 57-50-1) and 14.3 gr triple distilled water (TDW) were mixed using a magnetic stirrer for 10 min at 35-40° C. until a complete dissolution and acquisition of an aqueous solution.
It should be noted that among the various selected agents used for the preparation of the various formulations of the invention so far, cyclodextrin was proven to be incompatible in terms of a complete dissolution to obtain the aqueous phase as in Example 1, Stage 1.

cyclodextrin: the “compatibility in terms of a complete dissolution to obtain the aqueous phase” value was “incompatible”.
